Data from paper PMC2965657, “Antioxidant Biomarkers from Vanda coerulea Stems Reduce Irradiated HaCaT PGE-2 Production as a Result of COX-2 Inhibition” (PLoS ONE, 2010).
Where two headings read alike, the source gives them in different places.

Tests used:
[1] = DPPH radical scavenging (DPPH discolouration); details: mean ± sd; half-maximal neutralization of radical DPPH
Description: (§1) All in vitro radical-scavenging experiments (DPPH, ^•OH/luminol chemiluminescence) and IC50 calculations were assayed as previously described by Parejo et al. Results were expressed as percentage inhibition of DPPH discolouration and luminol chemiluminescence reduction, respectively. The concentration effect (logarithmic curve) obtained for each compound was used to calculate IC50. Serial dilutions of 1–5, and quercetin (used as standard reference) were prepared in MeOH.

[2] = •OH radical scavenging (luminol chemiluminescence); details: mean ± sd
Description: as §1

[3] = system: UVB (60 mJ/cm^2) irradiated HaCaT keratinocytes; assay: PGE-2 production by UVB irradiated HaCaT (EIA); assay type: cell-based, human; details: for IC50: read-out: IC50 inhibition of HaCaT PGE-2 production
Description: (§2) For measurement of reactive oxygen species neutralization and PGE-2 quantification with Vanda coerulea stem biomarkers, HaCaT cells were seeded in black 96-well microplates (Greiner Bio One 655090) at a concentration of 10^3 cells/well in complemented KSFM with 5% FBS. Microplates were incubated during 24 h (37°C, 5% CO2) before UVB irradiation at 60 mJ/cm^2 and treatment. For western blot analysis HaCaT cells were seeded at a density of 10^6 cells/ 100 mm dishes and incubated during 48 h before irradiation with UVB at 60 mJ/cm^2 (UV Lamp, VL-6LM, Vilber Lourmat) and treatment. All experiments were performed at 90% cell confluency. Cell viability was previously evaluated thanks to XTT analysis according to Roehm NW et al. Serial dilutions of 1–3, were prepared in DMSO (0.1% v/v final concentration). The first higher concentration tested was not cytotoxic (data not shown).
Indomethacin (2.79 µM), a non-steroidal COX inhibitor, was used as a positive reference. Treated microplates were incubated at 37°C, 5% CO2. Untreated irradiated and non irradiated cells (DMSO 0.1% v/v final) were respectively used as positive and negative controls. After 24 h, supernatants were harvested for PGE-2 concentration measurement and BCA assay was realized to determine total cellular protein in each well. PGE-2 concentration was measured using the enzyme immunoassay Parameter™ PGE-2 kit (R&D Systems) according to the manufacturer's instructions. Each PGE-2 quantification (QPGE-2) was reported to total protein concentration per well.
Results were expressed as inhibition percentage of PGE-2 (I PGE-2) production compared with untreated irradiated cells (positive control).
I PGE-2 = 100- ((QPGE2) sample/ (QPGE2) positive control) ×100.
Inhibition percentages were plotted according to compounds 1–3 concentrations. Logarithmic regression analysis of the mean replicate values was used to calculate IC50 (Concentration causing half-maximal Inhibition of irradiated HaCaT PGE-2 production)

[4] = system: H2O2 stressed HaCaT cells; assay: Intracellular ROS neutralization with DCFH-DA probe in H2O2 stressed HaCaT; assay type: cell-based; details: Homo sapiens, H2O2 100 µM, mean ± sd
Description: as §2
The DCFH-DA method was used to detect the levels of intracellular ROS [32] DCFH-DA diffuses into cells, where it is hydrolyzed by intracellular esterase to polar 2′,7′-dichlorodihydrofluorescein. This non-fluorescent fluorescein analog is oxidized by intracellular oxidants to a highly fluorescent, 2′,7′-dichlorofluorescein. Tocopherol [Sigma] (25 µM) was used as a positive reference. HaCaT cells were seeded as described and treated with serial dilutions of 1–3 and quercetin (standard reference) after 24 h incubation. Treated microplates were further incubated during 24 h (37°C, 5% CO2). HaCaT cells were washed with phosphate buffer saline (PBS), and DCFH-DA (0.05 mM) was added to the cells. 45 min after incubation, cells were stimulated by a H2O2 solution (100 µM in PBS) to generate an oxidative stress. Immediately after F(T0) and 40 min after stimulation F(T40), DCFH fluorescence was detected at an excitation wavelength of 485 nm and an emission wavelength of 535 nm, using a SpectraFluor Plus spectrofluorometer (Tecan). Two kinds of assay controls were used: negative control was non-stimulated cells and positive control was H2O2 stressed cells (DMSO 0.1% v/v). Results were expressed in percentage of fluorescence inhibition (% of ROS neutralization) calculated by comparison with H2O2 stimulated cells.
(% of ROS neutralization) = [1- [F(T40)-F(T0)] sample/[F(T40)-F(T0)] positive control] ×100.
Inhibition percentages were plotted according to compounds 1–3 and quercetin concentrations. Logarithmic regression analysis of the mean replicate values was used to calculate IC50 (Concentration causing half-maximal neutralization of ROS on H2O2 stressed HaCaT)

[5] = system: COX-2 expression in irradiated HaCaT cells; assay: COX-2 expression by Western blot in UVB irradiated HaCaT; assay type: cell-based, human; details: 2.87 µM, 16 h, COX-2/β-actin vs UVB+
Description: as §2
After UVB irradiation 100 mm dishes were treated with stilbenoids 1–3 at 23 µM and 2.87 µM in a serum free medium and incubated during 16 h (37°C, 5% CO2). Untreated irradiated (UVB+) and non irradiated (UVB-) cells were used as positive and negative controls respectively. […] The protein concentration of each sample was determined using a Bradford assay. […] Results were expressed as fold decrease compared to the (UVB+) control. […]

[6] = cited from earlier work
human recombinant COX-2 = target: T1, human recombinant COX-2 (Homo sapiens, UniProt P35354); assay: COX-2 enzyme activity (PGE-2 formation from arachidonic acid); assay type: biochemical; details: for IC50: 2 µM arachidonic acid, mean ± sd, read-out: IC50 inhibition of COX-2 enzyme activity; for inhibition of COX-2 enzyme activity: up to 100 µM
T1 sequence (P35354 18-604): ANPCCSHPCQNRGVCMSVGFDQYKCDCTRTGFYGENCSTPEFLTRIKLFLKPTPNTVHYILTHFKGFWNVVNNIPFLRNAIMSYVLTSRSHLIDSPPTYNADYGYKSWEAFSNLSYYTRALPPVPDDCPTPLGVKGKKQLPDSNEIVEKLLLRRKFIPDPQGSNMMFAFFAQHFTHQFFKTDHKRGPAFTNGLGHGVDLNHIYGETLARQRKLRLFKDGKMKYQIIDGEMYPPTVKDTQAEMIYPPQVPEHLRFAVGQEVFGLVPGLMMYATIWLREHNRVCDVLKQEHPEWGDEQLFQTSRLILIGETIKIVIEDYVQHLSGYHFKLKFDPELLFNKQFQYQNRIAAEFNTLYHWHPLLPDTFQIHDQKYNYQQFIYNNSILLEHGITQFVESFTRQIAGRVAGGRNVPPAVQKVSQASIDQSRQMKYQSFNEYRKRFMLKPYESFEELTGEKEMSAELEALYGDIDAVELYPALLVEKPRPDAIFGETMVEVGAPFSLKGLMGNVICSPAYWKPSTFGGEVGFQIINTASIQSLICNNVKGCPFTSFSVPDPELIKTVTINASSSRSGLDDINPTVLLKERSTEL
Description: Serial dilutions of 1–3 were prepared in DMSO. Six concentrations were tested from 0.1 µM to 100 µM for imbricatin (1), from 0.03 to 100 µM for methoxycoelonin (2) and from 0.3 µM to 100 µM for gigantol (3).
Stilbenoids 1–3, indomethacin and water (negative control) were pre-incubated for 20 min at 22°C with the human recombinant COX-2 enzyme (0.2 µg) in buffer containing 100 mM Tris-HCl (pH 8.0), 2 mM phenol and 1 µM hematine. Thereafter, the reaction was initiated by addition of 2 µM arachidonic acid and the mixture was incubated for 5 min at 22°C. For basal control measurements, arachidonic acid was omitted from the medium. Indomethacin was used as positive inhibitory reference.
Following incubation, the reaction was stopped by the addition of 1 M HCl then 1 M Tris/HCl (pH 8.0) followed by cooling to 4°C. The amount of PGE-2 present in the reaction mixture was quantified using an EIA detection kit (Cayman Chemical).
The results were expressed as inhibition percentage of the control enzyme activity:
100–[(activity measured in the presence of the compound/control enzyme activity) ×100]
The IC50 values (concentration causing a half-maximal inhibition of control enzyme activity) and Hill coefficients (nH) were determined by non-linear regression analysis of the inhibition curves generated with mean replicate values using Hill equation curve fitting.

[7] = system: irradiated (UVB 60 mJ/cm2) normal human epidermal keratinocytes (NHEK); assay: PGE-2 release from UVB irradiated normal human epidermal keratinocytes; assay type: cell-based; details: light or radiation study, vs UVB+ control, read-out: inhibition of PGE-2 production
Description: Supplementary file pone.0013713.s001.tif: Figure S1 Concentration-dependent effect of stilbenoids (1-3) on PGE-2 release from irradiated (UVB 60 mJ/cm2) normal human epidermal keratinocytes (NHEK). Histogram represents the quantity of PGE-2 produced (PGE-2/ total NHEK proteins pg/µg) according to different treatments. Untreated irradiated (UVB+) and non irradiated (UVB-) NHEK were used as positive and negative controls, respectively. […] Inhibition percentages of PGE-2 release were calculated by comparison with the positive control (UVB+). Values represen mean ± sds calculated with three independent experiments. Treatment groups were compared by using one way analysis of variance ANOVA post-hoc test. Student paired t test was used to compare each stilbenoid effect to the positive control. Statistical significance (*) was set at p<0.05. Significant differences were observed between each biomarker effect. IC50 were calculated with more points than those represented here on the graph. (0.82 MB TIF) Click here for additional data file.

[8] = Homo sapiens, light or radiation study, UVB 60 mJ/cm^2 irradiated HaCaT, 24 h, mean ± sd

| Compound | IC50 [1] | IC50 [2] | IC50 [4] | IC50 (human recombinant COX-2) | inhibition of COX-2 enzyme activity (human recombinant COX-2) | IC50 [3, 8] | further results |
| --- | --- | --- | --- | --- | --- | --- | --- |
| Oc1cc2c3c(c1)COc1cc(O)cc(c1-3)CC2 [Flavidin (4), Flavidin] | 6.61 ± 1.07 µM | 0.076 ± 0.014 µM |  |  |  |  |  |
| COc1cc(O)cc(CCc2ccc(O)c(OC)c2)c1 [Gigantol (3), Gigantol] | 14 ± 1.69 µM | 0.157 ± 0.039 µM | 20.6 ± 0.5 µM | ≥ 100 µM | did not display significant inhibition |  | inhibition of PGE-2 production ([3]; 2.87 µM, UVB irradiated HaCaT): strong inhibition; fold stronger inhibition of PGE-2 production on human HaCaT than on murine macrophage RAW 264.7 ([3]; HaCaT (this work) versus RAW 264.7 (ref 38)): 16 fold; IC50 inhibition of HaCaT PGE-2 production ([3]; UVB 60 mJ/cm^2 irradiated HaCaT, 24 h, mean ± sd): No concentration-dependanteffect; effect on UVB-induced COX-2 expression [5]: did not inhibit; IC50 ([6]; Zhang X et al): 56.4 µM |
| COc1c(O)cc2c3c1COc1cc(O)cc(c1-3)CC2 [Imbricatin (1), Imbricatin] | 8.37 ± 0.61 µM | 0.034 ± 0.011 µM | 8.8 ± 1.7 µM | 12 ± 1.2 µM | inhibited significantly | 12.2 ± 2.9 µM | IC50 ([6]; Guo XY et al): 8.8 µM |
| COc1ccc2c(c1)c(CC(=O)O)c(C)n2C(=O)c1ccc(Cl)cc1 [Indomethacin, reference compound] |  |  |  |  |  | 2.7 ± 0.7 µM | inhibition at 2.79 µM ([3]; Homo sapiens, light or radiation study, 2.79 µM, UVB irradiated HaCaT, vs UVB+ control): 54%; inhibition at 2.79 µM [7]: 86% |
| COc1cc2c(cc1O)CCc1cc(O)cc(OC)c1-2 [Methoxycoelonin (2), Methoxycoelonin] | 9.01 ± 0.93 µM | 0.035 ± 0.008 µM | 9.4 ± 2.1 µM | 5.8 ± 1.2 µM | inhibited significantly | 19.3 ± 3.8 µM |  |
| O=c1c(O)c(-c2ccc(O)c(O)c2)oc2cc(O)cc(O)c12 [Quercetin, reference compound] | 2.42 ± 0.65 µM | 0.045 ± 0.012 µM | 13.8 ± 2.2 µM |  |  |  |  |
| Coelonin [Coelonin (5)] | 8.47 ± 1.58 µM | 0.079 ± 0.018 µM |  |  |  |  | IC50 ([6]; Wang J et al): 16.7 µM |
